Assay results: ChEMBL document CHEMBL3621161, “Conformationally restrained carbamoylcholine homologues. Synthesis, pharmacology at neuronal nicotinic acetylcholine receptors and biostructural considerations” (Eur J Med Chem, 2015)
Calls of active or inactive are those of the source. The rule behind the calls is not given here.

Experiments:
[1] = target: T1, Neuronal acetylcholine receptor; alpha3/beta4 (Rattus norvegicus, UniProt P04757+P12392); test: Displacement of [3H]epibatidine from rat neuronal acetylcholine receptor subunit alpha3beta4 expressed in HEK293 cell membranes incubated for 4 hrs by scintillation counting method; conditions: for pKi: hek293
[2] = target: Neuronal acetylcholine receptor; alpha4/beta4 (Rattus norvegicus, UniProt P09483+P12392); test: Displacement of [3H]epibatidine from rat neuronal acetylcholine receptor subunit alpha4beta4 expressed in HEK293 cell membranes incubated for 4 hrs by scintillation counting method
[3] = target: Neuronal acetylcholine receptor; alpha4/beta2 (Rattus norvegicus, UniProt P09483+P12390); test: Displacement of [3H]epibatidine from rat neuronal acetylcholine receptor subunit alpha4beta2 expressed in HEK293 cell membranes incubated for 4 hrs by scintillation counting method
[4] = target: T1, Neuronal acetylcholine receptor; alpha3/beta4; test: Agonist activity at rat neuronal acetylcholine receptor subunit alpha3beta4 expressed in HEK293 cells at 1 mM by FMP assay; type: cell-based; conditions: for pEC50: hek293
[5] = target: Neuronal acetylcholine receptor subunit alpha-4/beta-2 (Mus musculus) (UniProt Q9ERK7+O70174); test: Agonist activity at mouse neuronal acetylcholine receptor subunit alpha4beta2 expressed in HEK293T cells at 300 uM by FMP assay; type: cell-based; conditions: HEK-293T
[6] = target: T1, Neuronal acetylcholine receptor; alpha3/beta4; test: Agonist activity at rat neuronal acetylcholine receptor subunit alpha3beta4 expressed in HEK293 cells by FMP assay; type: cell-based
[7] = target: Neuronal acetylcholine receptor subunit alpha-4/beta-2 (Mus musculus, UniProt O70174+Q9ERK7); test: Agonist activity at mouse neuronal acetylcholine receptor subunit alpha4beta2 expressed in HEK293T cells by FMP assay; type: cell-based, HEK-293T
[8] = target: Neuronal acetylcholine receptor; alpha3/beta4 (Rattus norvegicus) (UniProt P04757+P12392); test: Agonist activity at rat neuronal acetylcholine receptor subunit alpha3beta4 expressed in HEK293 cells at 300 uM by FMP assay; type: cell-based

T1 sequence (P04757 whole entry): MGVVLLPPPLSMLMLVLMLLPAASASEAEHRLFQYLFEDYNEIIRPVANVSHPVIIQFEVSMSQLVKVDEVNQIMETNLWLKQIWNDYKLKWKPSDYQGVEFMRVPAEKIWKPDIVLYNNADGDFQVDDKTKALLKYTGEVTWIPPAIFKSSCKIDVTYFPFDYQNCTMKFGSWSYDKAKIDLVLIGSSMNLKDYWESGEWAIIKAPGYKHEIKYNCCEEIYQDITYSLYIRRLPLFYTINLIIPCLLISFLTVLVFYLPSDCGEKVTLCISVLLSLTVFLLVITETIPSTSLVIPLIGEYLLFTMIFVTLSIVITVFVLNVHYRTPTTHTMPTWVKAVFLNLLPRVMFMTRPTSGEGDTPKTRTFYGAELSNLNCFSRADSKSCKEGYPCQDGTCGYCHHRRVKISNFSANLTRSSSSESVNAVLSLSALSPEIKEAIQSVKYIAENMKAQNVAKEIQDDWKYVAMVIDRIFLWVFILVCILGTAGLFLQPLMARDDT
T1 sequence (P12392 whole entry): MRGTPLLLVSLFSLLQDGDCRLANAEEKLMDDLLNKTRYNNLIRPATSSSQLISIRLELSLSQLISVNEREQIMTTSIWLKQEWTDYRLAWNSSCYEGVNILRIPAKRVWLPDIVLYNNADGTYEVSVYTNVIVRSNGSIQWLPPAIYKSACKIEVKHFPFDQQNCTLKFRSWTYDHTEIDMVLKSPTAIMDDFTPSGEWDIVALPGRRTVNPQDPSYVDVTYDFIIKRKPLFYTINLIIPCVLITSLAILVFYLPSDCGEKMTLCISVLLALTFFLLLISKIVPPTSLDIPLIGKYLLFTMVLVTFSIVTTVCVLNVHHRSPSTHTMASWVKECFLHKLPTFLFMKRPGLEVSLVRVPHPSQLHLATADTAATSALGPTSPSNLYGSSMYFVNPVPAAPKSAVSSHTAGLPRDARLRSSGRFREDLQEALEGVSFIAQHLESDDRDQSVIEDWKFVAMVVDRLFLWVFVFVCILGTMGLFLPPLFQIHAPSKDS
Neuronal acetylcholine receptor; alpha4/beta4, sequence (P09483 whole entry): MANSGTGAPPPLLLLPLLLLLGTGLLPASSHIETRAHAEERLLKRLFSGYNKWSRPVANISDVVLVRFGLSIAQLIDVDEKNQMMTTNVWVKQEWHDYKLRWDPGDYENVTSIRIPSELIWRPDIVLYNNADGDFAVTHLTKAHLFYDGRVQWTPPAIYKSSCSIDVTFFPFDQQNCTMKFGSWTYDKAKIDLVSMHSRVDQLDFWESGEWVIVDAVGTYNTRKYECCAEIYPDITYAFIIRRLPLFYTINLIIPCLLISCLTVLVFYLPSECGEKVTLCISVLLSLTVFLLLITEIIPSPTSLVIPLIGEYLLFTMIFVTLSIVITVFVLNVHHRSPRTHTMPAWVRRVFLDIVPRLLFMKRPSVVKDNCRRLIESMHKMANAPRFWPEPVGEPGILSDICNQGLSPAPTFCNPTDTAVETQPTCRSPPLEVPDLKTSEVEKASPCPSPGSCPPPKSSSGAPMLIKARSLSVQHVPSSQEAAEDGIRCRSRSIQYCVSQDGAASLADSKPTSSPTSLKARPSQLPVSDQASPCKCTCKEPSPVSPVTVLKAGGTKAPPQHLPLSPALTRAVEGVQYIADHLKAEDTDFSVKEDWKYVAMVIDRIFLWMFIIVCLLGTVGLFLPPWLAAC
Neuronal acetylcholine receptor; alpha4/beta4, sequence (P12392 whole entry): as the sequence (P12392 whole entry) above
Neuronal acetylcholine receptor; alpha4/beta2, sequence (P09483 whole entry): as the sequence (P09483 whole entry) above
Neuronal acetylcholine receptor; alpha4/beta2, sequence (P12390 whole entry): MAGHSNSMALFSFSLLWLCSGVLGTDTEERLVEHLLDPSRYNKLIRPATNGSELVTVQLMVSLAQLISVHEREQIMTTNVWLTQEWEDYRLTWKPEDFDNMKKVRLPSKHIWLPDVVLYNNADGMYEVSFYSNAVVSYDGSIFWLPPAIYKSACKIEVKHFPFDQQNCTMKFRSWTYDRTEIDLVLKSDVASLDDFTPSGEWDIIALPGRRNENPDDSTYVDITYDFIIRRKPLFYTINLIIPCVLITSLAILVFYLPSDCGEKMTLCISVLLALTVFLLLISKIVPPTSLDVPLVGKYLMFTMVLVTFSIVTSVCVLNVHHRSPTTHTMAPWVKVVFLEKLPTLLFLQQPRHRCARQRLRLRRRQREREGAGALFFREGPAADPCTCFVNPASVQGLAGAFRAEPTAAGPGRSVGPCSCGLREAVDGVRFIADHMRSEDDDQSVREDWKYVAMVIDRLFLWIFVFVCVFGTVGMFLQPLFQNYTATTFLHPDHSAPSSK
Neuronal acetylcholine receptor subunit alpha-4/beta-2 (Mus musculus), sequence (O70174 31-629 partner limits assumed): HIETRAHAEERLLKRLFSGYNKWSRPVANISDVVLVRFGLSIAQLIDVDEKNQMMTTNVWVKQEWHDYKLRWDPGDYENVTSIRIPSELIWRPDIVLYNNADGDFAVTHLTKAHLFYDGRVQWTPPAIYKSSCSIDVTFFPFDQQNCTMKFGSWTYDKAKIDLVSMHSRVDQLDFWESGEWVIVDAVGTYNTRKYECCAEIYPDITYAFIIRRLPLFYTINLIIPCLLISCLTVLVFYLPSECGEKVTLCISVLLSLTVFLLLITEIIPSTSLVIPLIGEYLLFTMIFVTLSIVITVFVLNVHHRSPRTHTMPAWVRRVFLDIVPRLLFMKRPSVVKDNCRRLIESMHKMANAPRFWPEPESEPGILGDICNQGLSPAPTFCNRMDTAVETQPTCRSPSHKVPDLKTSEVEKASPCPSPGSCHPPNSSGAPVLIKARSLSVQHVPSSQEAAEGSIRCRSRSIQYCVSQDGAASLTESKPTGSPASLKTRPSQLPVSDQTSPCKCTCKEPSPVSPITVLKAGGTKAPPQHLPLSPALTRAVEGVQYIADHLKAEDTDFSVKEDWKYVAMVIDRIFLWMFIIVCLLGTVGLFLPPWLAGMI
Neuronal acetylcholine receptor subunit alpha-4/beta-2 (Mus musculus), sequence (Q9ERK7 26-501 limits assumed): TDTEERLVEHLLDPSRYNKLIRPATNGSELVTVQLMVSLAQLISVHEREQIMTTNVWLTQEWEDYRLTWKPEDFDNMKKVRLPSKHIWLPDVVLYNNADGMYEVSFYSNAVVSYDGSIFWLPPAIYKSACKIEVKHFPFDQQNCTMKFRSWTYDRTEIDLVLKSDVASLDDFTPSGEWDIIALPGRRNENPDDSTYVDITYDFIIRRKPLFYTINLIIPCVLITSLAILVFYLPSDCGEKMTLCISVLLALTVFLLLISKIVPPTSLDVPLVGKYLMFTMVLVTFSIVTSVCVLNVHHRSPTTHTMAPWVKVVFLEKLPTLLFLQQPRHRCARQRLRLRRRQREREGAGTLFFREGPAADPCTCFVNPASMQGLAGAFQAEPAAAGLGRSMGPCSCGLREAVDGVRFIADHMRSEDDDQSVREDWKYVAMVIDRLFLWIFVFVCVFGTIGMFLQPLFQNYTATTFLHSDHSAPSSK
Neuronal acetylcholine receptor subunit alpha-4/beta-2, sequence (Q9ERK7 whole entry): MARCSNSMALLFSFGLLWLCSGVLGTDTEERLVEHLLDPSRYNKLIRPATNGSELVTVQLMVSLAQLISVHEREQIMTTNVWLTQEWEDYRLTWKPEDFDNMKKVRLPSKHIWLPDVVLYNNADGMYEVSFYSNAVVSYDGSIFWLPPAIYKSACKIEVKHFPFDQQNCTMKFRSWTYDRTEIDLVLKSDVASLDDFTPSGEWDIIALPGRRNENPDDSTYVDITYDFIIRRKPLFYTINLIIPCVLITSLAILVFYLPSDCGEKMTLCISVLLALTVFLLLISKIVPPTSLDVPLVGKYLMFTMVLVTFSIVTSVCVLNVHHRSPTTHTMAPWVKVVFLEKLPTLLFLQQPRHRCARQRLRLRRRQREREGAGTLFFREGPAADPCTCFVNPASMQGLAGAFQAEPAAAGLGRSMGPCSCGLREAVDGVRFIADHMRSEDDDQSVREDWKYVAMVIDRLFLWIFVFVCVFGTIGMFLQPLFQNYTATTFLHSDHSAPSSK
Neuronal acetylcholine receptor subunit alpha-4/beta-2, sequence (O70174 whole entry): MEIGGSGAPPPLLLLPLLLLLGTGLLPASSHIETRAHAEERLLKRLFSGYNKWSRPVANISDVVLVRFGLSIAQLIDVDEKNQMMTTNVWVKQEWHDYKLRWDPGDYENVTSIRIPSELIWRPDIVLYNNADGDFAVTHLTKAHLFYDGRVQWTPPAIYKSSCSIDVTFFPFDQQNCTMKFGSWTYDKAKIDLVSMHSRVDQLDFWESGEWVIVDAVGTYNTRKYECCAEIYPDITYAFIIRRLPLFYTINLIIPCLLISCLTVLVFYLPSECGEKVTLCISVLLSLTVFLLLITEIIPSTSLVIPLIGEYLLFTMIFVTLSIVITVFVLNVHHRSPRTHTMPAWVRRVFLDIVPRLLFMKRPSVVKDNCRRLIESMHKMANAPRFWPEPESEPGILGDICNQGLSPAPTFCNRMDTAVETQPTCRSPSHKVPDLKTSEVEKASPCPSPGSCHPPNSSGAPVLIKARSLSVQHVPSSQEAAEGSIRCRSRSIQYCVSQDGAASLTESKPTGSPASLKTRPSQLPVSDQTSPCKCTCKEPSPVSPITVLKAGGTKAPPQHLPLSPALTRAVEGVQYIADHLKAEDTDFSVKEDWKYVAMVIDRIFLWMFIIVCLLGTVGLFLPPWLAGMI

Structure (SMILES) | Ki ([1]; read-out: Ki) [µM] | Ki ([2]; read-out: Ki) [µM] | Ki [3] [µM] | Activity [5] | further results
CN1CCN(C(=O)N(C)C)CC1 | 50 | 50 | 30 |  | 
CCNC(=O)N1CCN(C)CC1 | 100 | 100 | 10 | Active | EC50 [4]: > 1000 µM; pEC50 [4]: < 3
CNC(=S)N1CCN(C)CC1 | > 1000 | 500 | 19 |  | pKi [1]: < 3
CCNC(=S)N1CCN(C)CC1 | > 1000 | 300 | 5.8 | Active | pKi [1]: < 3; EC50 [6]: 100 µM
CN(C)C(=O)C1CCNCC1 | > 1000 | > 1000 | > 1000 |  | pKi [1]: < 3; pKi ([2]; hek293): < 3; pKi ([3]; hek293): < 3
CN1CCCN(C(=O)N(C)C)CC1 | 300 | 300 | 50 |  | 
CN(C)C(=O)N1CCCNCC1 | 300 | 50 | 11 |  | 
CC(CCOC(=O)N(C)C)N(C)C (configuration not stated) |  |  |  |  | Ki ([1]; read-out: pKi (converted)): 0.02 µM; Ki ([2]; read-out: pKi (converted)): 0.02 µM
CC(CCOC(=O)N1CCCC1)N(C)C (configuration not stated) |  |  |  |  | EC50 [7]: 7.1 µM
CN(C)C(=O)OC[C@H]1C[C@H]1N (racemic) | 300 | 100 | 13 |  | 
CN(C)C(=O)OC[C@H]1C[C@@H]1N(C)C (racemic) | 1000 | 1000 | 100 |  | 
CNC(=O)OC[C@H]1C[C@@H]1N(C)C.O=C(O)C(=O)O (racemic) | > 1000 | 1000 | 300 |  | pKi [1]: < 3
CN(C)C(=O)OC[C@H]1C[C@H]1N(C)C (racemic) | 14 | 14 | 1.5 | Active | Activity [8]: Active
CNC(=O)OC[C@H]1C[C@H]1N(C)C (racemic) | 50 | 30 | 2.1 | Active | Activity [8]: Active
CN(C)C(=O)N1CCC(N(C)C)C1 (racemic) | 6.4 | 2.3 | 6.4 |  | EC50 [7]: 10 µM; EC50 [6]: 32 µM
CCNC(=O)N1CCC(N(C)C)C1 (racemic) | 30 | 30 | 5.7 | Active | EC50 [6]: 100 µM
CNC(=S)N1CCC(N(C)C)C1 (racemic) | 300 | 100 | 2.3 | Active | EC50 [4]: > 1000 µM; pEC50 [4]: < 3
CCNC(=S)N1CCC(N(C)C)C1 (racemic) | > 1000 | 300 | 1.2 | Active | pKi [1]: < 3; EC50 [4]: > 1000 µM; pEC50 [4]: < 3
